Reference: US20180353460A1, “METHODS OF TREATING UROLOGICAL DISORDERS USING SARMs” (priority 2014, published 2018)

Test system: prostate, seminal vesicles and levator ani muscle
Assay: Androgenic and anabolic activity in intact male rats, daily oral gavage
Assay type: in vivo, rat
Experimental: Male Sprague-Dawley rats weighing approximately 200 g were purchased from Harlan Bioproducts for Science (Indianapolis, Ind.). The animals were maintained on a 12 h light/dark cycle with food (7012C LM-485 Mouse/Rat Sterilizable Diet, Harlan Teklad, Madison, Wis.) and water available ad libitum. The anabolic and androgenic activity of compound of Formula VIII in intact animals was tested, as well as a dose response evaluation in acutely orchidectomized (ORX) animals. Regenerative effects of the compound of Formula VIII in chronically (9 days) ORX rats was similarly evaluated.
The test article for this study was weighed and dissolved in 10% DMSO (Fisher) diluted with PEG 300 (Acros Organics, NJ) for preparation of the appropriate dosage concentrations. The animals were housed in groups of 2 to 3 animals per cage. Animals were randomly assigned to one of seven groups consisting of 4 to 5 animals per group. Control groups (intact and ORX) were administered vehicle daily. Compound of Formula VIII was administered via oral gavage at doses of 0.01, 0.03, 0.1, 0.3, 0.75, and 1 mg/day to both intact and ORX groups. Where appropriate, animals were castrated on day one of the study. Treatment with compound of Formula VIII began nine days post ORX and was administered daily via oral gavage for fourteen days.
The animals were sacrificed under anesthesia (ketamine/xyalzine, 87:13 mg/kg) and body weights were recorded. In addition, ventral prostate, seminal vesicles, and levator ani muscle were removed, individually weighed, normalized to body weight, and expressed as a percentage of intact control. Student's T-test was used to compare individual dose groups to the intact control group. Significance was defined a priori as a P-value <0.05. Ventral prostate and seminal vesicle weights were evaluated as a measure of androgenic activity, whereas levator ani muscle weight was evaluated as a measure of anabolic activity. Blood was collected from the abdominal aorta, centrifuged, and sera were frozen at −80° C. prior to determination of serum hormone levels. Serum luteinizing hormone (LH) and follicle stimulating hormone (FSH) concentrations were determined.
Male Sprague-Dawley rats weighing approximately 200 g were purchased from Harlan Bioproducts for Science (Indianapolis, Ind.). The animals were maintained on a 12 h light/dark cycle with food (7012C LM-485 Mouse/Rat Sterilizable Diet, Harlan Teklad, Madison, Wis.) and water available ad libitum. Anabolic and androgenic activity of compound of Formula IX in intact animals was evaluated, and the dose response in acutely orchidectomized (ORX) animals was evaluated as well. Regenerative effects of compound of Formula IX in chronically (9 days) ORX rats were also assessed.
The compound was weighed and dissolved in 10% DMSO (Fisher) diluted with PEG 300 (Acros Organics, NJ) for preparation of the appropriate dosage concentrations. The animals were housed in groups of 2 to 3 animals per cage. Intact and ORX animals were randomly assigned to one of seven groups consisting of 4 to 5 animals per group. Control groups (intact and ORX) were administered vehicle daily. Compound of Formula IX was administered via oral gavage at doses of 0.01, 0.03, 0.1, 0.3, 0.75, and 1 mg/day to both intact and ORX groups.
Castrated animals (on day one of the study) were randomly assigned to dose groups (4-5 animals/group) of 0.01, 0.03, 0.1, 0.3, 0.75, and 1 mg/day, for dose-response evaluation. Dosing began nine days post ORX and was administered daily via oral gavage for fourteen days. The animals were sacrificed under anesthesia (ketamine/xyalzine, 87:13 mg/kg) after a 14-day dosing regimen, and body weights were recorded. In addition, ventral prostate, seminal vesicles, and levator ani muscle were removed, individually weighed, normalized to body weight, and expressed as a percentage of intact control. Student's T-test was used to compare individual dose groups to the intact control group. […]

| SMILES | levator ani muscle weight (0.01 mg/day) | prostate weight (0.01 mg/day) | seminal vesicle weight (0.01 mg/day) | levator ani muscle weight (0.03 mg/day) | prostate weight (0.03 mg/day) | seminal vesicle weight (0.03 mg/day) | levator ani muscle weight (0.1 mg/day) | prostate weight (0.1 mg/day) | seminal vesicle weight (0.1 mg/day) | levator ani muscle weight (0.3 mg/day) | prostate weight (0.3 mg/day) | seminal vesicle weight (0.3 mg/day) | levator ani muscle weight (0.75 mg/day) | prostate weight (0.75 mg/day) | seminal vesicle weight (0.75 mg/day) | levator ani muscle weight (1 mg/day) | prostate weight (1 mg/day) | seminal vesicle weight (1 mg/day) |
| --- | --- | --- | --- | --- | --- | --- | --- | --- | --- | --- | --- | --- | --- | --- | --- | --- | --- | --- |
| C[C@](O)(COc1ccc(C#N)cc1)C(=O)Nc1ccc(C#N)c(C(F)(F)F)c1 [Compound IX, (S)—N-(4-Cyano-3-(trifluoromethyl)phenyl)-3-(4-cyanophenoxy)-2-hydroxy-2-methylpropanamide] | 120%±12% | 111%±21% | 94%±9% | 116%±7% | 88%±15% | 77%±11% | 128%±7% | 77%±17% | 80%±9% | 134%±7% | 71%±16% | 73%±12% | 125%±9% | 71%±10% | 77%±10% | 146%±17% | 87%±13% | 88%±14% |
| C[C@](O)(COc1ccc(C#N)cc1)C(=O)Nc1ccc(C#N)c(Cl)c1 [VIII, (S)—N-(3-Chloro-4-cyanophenyl)-3-(4-cyanophenoxy)-2-hydroxy-2-methylpropanamide] | 107%±5% | 103%±10% |  | 103%±7% | 99%±10% |  | 97%±7% | 58%±10% |  | 103%±5% | 58%±15% |  | 118%±7% | 65%±20% |  | 118%±7% | 77%±23% |  |
| C[C@](O)(COc1ccc(C#N)c(F)c1)C(=O)Nc1ccc(C#N)c(C(F)(F)F)c1 [XIII, (S)—N-(4-cyano-3-(trifluoromethyl)phenyl)-3-(4-cyano-3-fluorophenoxy)-2-hydroxy-2-methylpropanamide] | 116%±7% | 98%±21% | 115%±12% | 134%±8% | 99%±8% | 109%±17% | 134%±21% | 85%±18% | 106%±13% | 134%±11% | 98%±22% | 121%±11% | 142%±10% | 126%±17% | 157%±5% | 147%±10% | 126%±17% | 136%±3% |
